Patent EP4321162A1 (priority 2022, dated 2024)

Columns and labels:
Calu-3 2B4 cells = conditions: uninfected Calu-3 2B4 cells, 1-50 µM tested, 48 h
SARS-CoV-2 = tested on: SARS-CoV-2; set-up: species or system K18-hACE2 mice; conditions: mouse, in vivo

Structure (SMILES) | cytotoxicity of the administered concentrations (cell viability, MTT) (Calu-3 2B4 cells) | protection levels (survival) (SARS-CoV-2) [%]
CC(C)(C)c1cc(C(C)(C)C)c(NC(=O)c2c[nH]c3ccccc3c2=O)cc1O [VX770, N-(2,4-ditert-butyl-5-hydroxyphenyl)-4-oxo-1H-quinoline-3-carboxamide] | non-toxic | 40
Cc1ccc(NC(=O)C2(c3ccc4c(c3)OC(F)(F)O4)CC2)nc1-c1cccc(C(=O)O)c1 [VX809, 3-[6-[[1-(2,2-difluoro-1,3-benzodioxol-5-yl)cyclopropanecarbonyl]amino]-3-methylpyridin-2-yl]benzoic acid] | non-toxic | 20
